What was measured:
Type in all cases: in vivo
[1] = test system: NK model in Chinchilla rabbits (ophthalmic branch (V1) of trigeminal nerve injured with sodium hydroxide); test: Central corneal sensitivity with Von Frey filaments, NK rabbit model; settings: for Corneal Sensitivity, Contact force (Nylon size) / Corneal Sensitivity, Contact force: X ± SEM, n = 8
Procedure: (§1) The NK model is established in Chinchilla rabbits by using a chemical method to destroy the ophthalmic branch (V1) of trigeminal nerve to induce NK. Briefly, animals were anesthetized. […] The trigeminal nerve was carefully separated from surrounding fasciae, and the ophthalmic nerve (V1) of trigeminal nerve was isolated and injured with sodium hydroxide solution. The V1 injury was performed for unilateral eye in each animal for 5 days prior to treatment.
(§2) A total of 16 animals were assigned randomly into two groups based on corneal ulcer areas at Day 1 prior to the treatments, and the animals received either BRM424 ophthalmic solution (OS containing 0.03% BRM424; TA-1 group) or Vehicle (TA-2 group) in the surgical eye three times daily (TID, eye drops) for 28 days. During the study period, the corneal ulcer areas, corneal fluorescein staining, corneal sensitivity, Schirmer test, and Tear film break-up time (TFBUT) at baseline (Day 0), Day 4, Day 8, Day 15, Day 22, and Day 29 were measured.
Central corneal sensitivity was monitored using Von Frey filaments. Various forces of calibrated Von Frey filaments (0.008-300 g) were applied to the center of the cornea surface of immobilized animal. The mechanical threshold response was determined by assessing treated-eye blinking response evoked by the same calibrated Von Frey filaments twice out of three times. FIG. 4A and FIG. 4B show results for corneal sensitivity tests. Prior to the dose administration (Day 0), there was no corneal reflex in all animals, even when using the coarsest nylon filament (Force 0.008-300 g).

[2] = test system: NK model in Chinchilla rabbits (ophthalmic branch (V1) of trigeminal nerve injured with sodium hydroxide); test: Tear film break-up time (TFBUT), NK rabbit model; settings: for TFBUT: X ± SEM, n = 8
Procedure: as §1, §2

[3] = test system: NK model in Chinchilla rabbits (ophthalmic branch (V1) of trigeminal nerve injured with sodium hydroxide); test: Corneal fluorescein staining (FL score), NK rabbit model; parameters: Fluorescein Staining Score: scale not given here; settings: for Fluorescein Staining Score: X ± SEM, n = 8
Procedure: as §1, §2
Cornea damage may be assessed using corneal fluorescein staining. […] The mean value of corneal fluorescein sodium staining scores at Day 0 was 3.62±0.18 for both the TA-1 and TA-2 groups and fell below 3 (TA-1=1.38±0.18, TA-2=2.36±0.42) by Day 8, indicating a quick onset of action. […] The fluorescein staining score of the TA-1 group reached 1 by Day 29.

[4] = test system: NK model in Chinchilla rabbits (ophthalmic branch (V1) of trigeminal nerve injured with sodium hydroxide); test: Schirmer test for tear production, NK rabbit model; settings: for Schirmer Test: X ± SEM, n = 8
Procedure: as §1, §2
However, the tear volumes of the TA-1 group at Day 29 were about 2-fold higher than that at Day 0.

[5] = test system: NK model in Chinchilla rabbits (ophthalmic branch (V1) of trigeminal nerve injured with sodium hydroxide); test: Corneal ulceration area, slit-lamp with cobalt blue light, NK rabbit model; settings: for Corneal Ulceration Area: X ± SEM, n = 8
Procedure: as §1, §2
Corneal ulceration areas were measured from images taken during slit-lamp examination with cobalt blue light. […] At Day 0, the corneal ulceration areas were 25.98±1.88 mm^2 for the TA-1 group and 27.65±2.66 mm^2 for the TA-2 group, and these areas were reduced to 7.80±1.45 mm^2 and 13.30±2.36 mm^2 by Day 8 for the TA-1 group and TA-2 group, respectively.

[6] = Day 4, 0.03% BRM424 ophthalmic solution TID
[7] = Day 8, 0.03% BRM424 ophthalmic solution TID
[8] = Day 15, 0.03% BRM424 ophthalmic solution TID
[9] = Day 22, 0.03% BRM424 ophthalmic solution TID
[10] = Day 29, 0.03% BRM424 ophthalmic solution TID
[11] = Day 0 (baseline, prior to treatment)
[12] = after 29 days of topical dose administrations
[13] = Day 0 (baseline, prior to treatment), listed as TA-1

Sequence: SLGAEQRTESIIHRALYYDLISSPDIHGT (ophthalmic solution 0.03%; listed as Homo sapiens) [BRM424, PEDF-derived short peptide (PDSP), residues 93-121 of PEDF]
- Corneal Sensitivity, Contact force (Nylon size) ([1]; Day 0 (baseline, prior to treatment), Von Frey filament that triggered corneal reflex): 6.65 ± 0.00
- Corneal Sensitivity, Contact force ([1]; Day 0 (baseline, prior to treatment), force that triggered corneal reflex): 300.00 ± 0.00 g
- Corneal Sensitivity, Contact force [1, 6]: 300.00 ± 0.00 g
- Corneal Sensitivity, Contact force (Nylon size) [1, 6]: 6.65 ± 0.00
- Corneal Sensitivity, Contact force [1, 7]: 300.00 ± 0.00 g
- Corneal Sensitivity, Contact force (Nylon size) [1, 7]: 6.65 ± 0.00
- Corneal Sensitivity, Contact force [1, 8]: 235.75 ± 42.18 g
- Corneal Sensitivity, Contact force (Nylon size) [1, 8]: 6.41 ± 0.16
- Corneal Sensitivity, Contact force [1, 9]: 300.00 ± 0.00 g
- Corneal Sensitivity, Contact force (Nylon size) [1, 9]: 6.65 ± 0.00
- Corneal Sensitivity, Contact force [1, 10]: 189.75 ± 53.80 g
- Corneal Sensitivity, Contact force (Nylon size) [1, 10]: 5.93 ± 0.35
- Corneal sensation recovery compared with vehicle (TA-2) group ([1]; after 29 days of treatments): recovered faster with better improvement than the TA-2 group
- TFBUT [2, 11]: 5.50 ± 0.33 s
- TFBUT [2, 6]: 4.88 ± 0.48 s
- TFBUT [2, 7]: 6.75 ± 0.45 s
- TFBUT [2, 8]: 5.13 ± 0.55 s
- TFBUT [2, 9]: 4.38 ± 0.32 s
- TFBUT [2, 10]: 5.38 ± 0.32 s
- TFBUT, difference between TA-1 and TA-2 (vehicle) groups [2, 12]: no significant difference
- Fluorescein Staining Score [3, 11]: 3.62 ± 0.18
- Fluorescein Staining Score [3, 13]: 3.62±0.18
- Fluorescein Staining Score ([3]; Day 4, 0.03% BRM424 ophthalmic solution, eye drops TID): 2.00 ± 0.38
- Fluorescein Staining Score ([3]; Day 8, 0.03% BRM424 ophthalmic solution, eye drops TID): 1.38 ± 0.18
- Fluorescein Staining Score ([3]; Day 8, 0.03% BRM424 ophthalmic solution, eye drops TID, listed as TA-1): 1.38±0.18
- Fluorescein staining score, difference between TA-1 and TA-2 (vehicle) groups ([3]; Day 8 and Day 15, P<0.05): Significant difference
- Fluorescein Staining Score ([3]; Day 15, 0.03% BRM424 ophthalmic solution, eye drops TID): 1.63 ± 0.36
- Fluorescein Staining Score ([3]; Day 22, 0.03% BRM424 ophthalmic solution, eye drops TID): 1.25 ± 0.16
- Fluorescein Staining Score ([3]; Day 29, 0.03% BRM424 ophthalmic solution, eye drops TID): 1.00 ± 0.19
- Fluorescein Staining Score ([3]; Day 29, 0.03% BRM424 ophthalmic solution, eye drops TID, listed as TA-1): 1
- Schirmer Test [4, 11]: 5.63 ± 0.71 mm
- Schirmer Test [4, 6]: 6.00 ± 0.93 mm
- Schirmer Test [4, 7]: 5.50 ± 1.02 mm
- Schirmer Test [4, 8]: 6.38 ± 0.86 mm
- Schirmer Test [4, 9]: 6.50 ± 1.24 mm
- Schirmer Test [4, 10]: 10.75 ± 1.59 mm
- Tear volumes at Day 29 relative to Day 0 ([4]; Day 29 vs Day 0, same group): about 2 fold
- Tear volumes, difference between TA-1 and TA-2 (vehicle) groups [4, 12]: no significant difference
- Corneal Ulceration Area [5, 11]: 25.98 ± 1.88 mm^2
- Corneal Ulceration Area [5, 13]: 25.98±1.88 mm^2
- Corneal Ulceration Area ([5]; Day 4, 0.03% BRM424 ophthalmic solution, eye drops TID, surgical eye): 13.63 ± 2.51 mm^2
- Corneal ulceration area reduction compared with vehicle (TA-2) group ([5]; Day 8, Day 15 and Day 29, p<0.05): more than that of TA-2 group
- Corneal Ulceration Area ([5]; Day 8, 0.03% BRM424 ophthalmic solution, eye drops TID, surgical eye): 7.80 ± 1.45 mm^2
- Corneal Ulceration Area ([5]; Day 8, 0.03% BRM424 ophthalmic solution, eye drops TID, surgical eye, listed as TA-1): 7.80±1.45 mm^2
- Corneal Ulceration Area ([5]; Day 15, 0.03% BRM424 ophthalmic solution, eye drops TID, surgical eye): 9.93 ± 2.46 mm^2
- Corneal Ulceration Area ([5]; Day 22, 0.03% BRM424 ophthalmic solution, eye drops TID, surgical eye): 7.29 ± 2.11 mm^2
- Corneal Ulceration Area ([5]; Day 29, 0.03% BRM424 ophthalmic solution, eye drops TID, surgical eye): 4.81 ± 1.44 mm^2

— patent publication US20260256881A1, “COMPOSITIONS COMPRISING PEDF-DERIVED SHORT PEPTIDES FOR THE TREATMENT OF NEUROTROPHIC KERATITIS DISEASES” (BRIM Biotechnology, Inc., priority 2022, published 2026)
